Reference: patent US8546343B2, “Aminoglycoside antibiotics targeting bacterial 16S ribosomal RNA” (Eidgenoessische Technische Hochschule Zurich, priority 2007, dated 2013)
Converted amounts (≈) assume the structure as drawn.

Columns and labels:
[1] = tested on: M. smegmatis ΔrrnB (bacterial ribosomes); experiment: MIC, recombinant M. smegmatis with bacterial (wild-type) ribosomes; format: cell-based, Mycobacterium smegmatis; conditions: 72 h at 37° C.
From the text: (§1) The strain used for introduction/selection of mutational alterations was a genetically modified derivative of Mycobacterium smegmatis carrying a single functional chromosomal rRNA operon (Sander et al. Mol. Microbiol. 1996, 22: 841-848). This strain, termed M. smegmatis rrn^−, allowed for the selection of mutational rRNA gene alterations using a plasmid carrying the rRNA gene with the respective mutational alteration.)
(§2) The rRNA gene carried on the plasmid encodes either the complete rRNA operon (Prammananan et al. Antimicrob. Agents Chemother. 1999, 43: 447-453) or a non-functional rRNA gene fragment of approximately 1.0 kb (Pfister et al. Antimicrob. Agents Chemother. 2003, 47: 1496-1502). PCR-mutagenesis in vitro was used to generate the mutagenized rRNA gene fragment. In the case of a partial rRNA gene fragment the mutagenized rRNA gene fragment was cloned into vectors pMV261 or pMV361 (Sander et al. Mol. Microbiol. 2002, 46: 1295-1304; Pfister et al. Antimicrob. Agents Chemother. 2003, 47: 1496-1502) to result in vectors carrying a partial rRNA gene fragment of approximately 1.0 kb with the mutational alteration introduced. In the case of plasmids carrying the complete rRNA operon the mutagenized rRNA gene fragment obtained by PCR was cloned into vectors pMV361 rRNA or pMV261 rRNA using appropriate restriction sites (Prammananan et al. Antimicrob. Agents Chemother. 1999, 43: 447-453). Vectors pMV361 rRNA and pMV261 rRNA carried a complete copy of the rRNA operon from M. smegmatis (Sander et al. Mol. Microbiol. 1997, 26: 469-480). Introduction of mutations into the plasmid encoded rRNA was confirmed by sequencing.
(§3) The single rRNA allelic derivative of M. smegmatis, i.e. M. smegmatis rrn, was used for transformation of the plasmids. The strain was made electro-competent and transformed according to standard techniques and as described previously (Sander et al. Mol. Microbiol. 1997, 26: 469-484). Following primary selection, the plasmid-encoded mutational rRNA gene alteration was transferred into the single chromosomal rRNA operon by means of RecA-mediated homologous recombination (Prammananan at al. Antimicrob. Agents Chemother. 1999, 43: 447-453). Introduction of the mutational rRNA gene alteration into the single functional chromosomal rRNA operon by gene conversion was confirmed by sequence determination.
(§4) Ribosomal drug susceptibility was studied by determining the minimal inhibitory concentrations, as described in detail in Pfister et al. 2003 and 2005 (see above).
(§5) The recombinants carrying the respective mutational alterations in the functional rRNA operon were colony-purified and subjected to determinations of minimal inhibitory concentrations (MIC) to determine ribosomal drug susceptibility. Cultures from single colonies were grown in LB medium supplemented with 0.05% Tween 80 and used for MIC tests in a microtiter plate format. Starting cultures contained 200 μl of bacterial cells at an optical density of 0.025 at 600 nm, and the respective drug was added in twofold series of dilution.
(§6) Key nucleotides which distinguish the prokaryotic from the eukaryotic decoding site are 16S rRNA positions 1408 (bacterial ribosome: A, eukaryotic cytosolic ribosomes: G) and 1491 (bacterial ribosomes: G, eukaryotic cytosolic ribosomes: A, eukaryotic mitochondrial ribosome: C).

[2] = tested on: M. smegmatis ΔrrnB 1408G (16S rRNA position 1408 G, eukaryotic cytosolic ribosomes); experiment: MIC, recombinant M. smegmatis with mutant ribosomes 1408G; format: cell-based, Mycobacterium smegmatis; conditions: M. smegmatis ΔrrnB 1408G mutant ribosomes; 72 h at 37° C.
From the text: as §1, §2, §3, §4, §5, §6

[3] = tested on: M. smegmatis ΔrrnB 1491A (16S rRNA position 1491 A, eukaryotic cytosolic ribosomes); experiment: MIC, recombinant M. smegmatis with mutant ribosomes 1491A; format: cell-based, Mycobacterium smegmatis; conditions: M. smegmatis ΔrrnB 1491A mutant ribosomes; 72 h at 37° C.
From the text: as §1, §2, §3, §4, §5, §6

[4] = tested on: M. smegmatis ΔrrnB 1491C (16S rRNA position 1491 C, eukaryotic mitochondrial ribosome); experiment: MIC, recombinant M. smegmatis with mutant ribosomes 1491C; format: cell-based, Mycobacterium smegmatis; conditions: M. smegmatis ΔrrnB 1491C mutant ribosomes; 72 h at 37° C.
From the text: as §1, §2, §3, §4, §5, §6

[5] = tested on: AG011 Staph. aureus clinical isolate; experiment: Standard MIC assay, AG011; format: cell-based, Staphylococcus aureus; conditions: for MIC: Staphylococcus aureus, read-out: Minimal inhibitory concentrations AG011
Description: (§7) Selected compounds of the present invention were tested for antibiotic susceptibility using clinical isolates of Staphylococci, Enterococci and Escherichia coli as well as strains carrying defined resistance determinants and compared to well known antibiotics of the state of the art. Drug susceptibility was determined in standard MIC assays, i.e. by determination of the minimal drug concentration required to inhibit bacterial growth in vitro.

[6] = tested on: AG013 Staph. epi. clinical isolate; experiment: Standard MIC assay, AG013; format: cell-based, Staphylococcus epidermidis; conditions: for MIC: Staphylococcus epidermidis, read-out: Minimal inhibitory concentrations AG013
Description: as §7

[7] = tested on: AG014 Staph. epi. clinical isolate; experiment: Standard MIC assay, AG014; format: cell-based, Staphylococcus epidermidis; conditions: for MIC: Staphylococcus epidermidis, read-out: Minimal inhibitory concentrations AG014
Description: as §7

[8] = tested on: AG016 S. aureus BM3002; experiment: Standard MIC assay, AG016; format: cell-based, Staphylococcus aureus; conditions: for MIC: Staphylococcus aureus, read-out: Minimal inhibitory concentrations AG016
Description: as §7

[9] = tested on: AG015 S. aureus BM3002 (ANT4′); experiment: Standard MIC assay, AG015; format: cell-based, Staphylococcus aureus; conditions: for MIC: Staphylococcus aureus, read-out: Minimal inhibitory concentrations AG015; for Minimal inhibitory concentrations AG015: S. aureus BM3002 (ANT4′)
Description: as §7

[10] = tested on: AG017 E. faecalis JH2-2; experiment: Standard MIC assay, AG017; format: cell-based, Enterococcus faecalis; conditions: for MIC: Enterococcus faecalis, read-out: Minimal inhibitory concentrations AG017
Description: as §7

[11] = tested on: AG019 E. faecalis JH2-2 (APH2″ AAC6′); experiment: Standard MIC assay, AG019; format: cell-based, Enterococcus faecalis; conditions: for MIC: Enterococcus faecalis, read-out: Minimal inhibitory concentrations AG019; for Minimal inhibitory concentrations AG019: E. faecalis JH2-2 (APH2″ AAC6′)
Description: as §7

[12] = tested on: AG001 E. coli clinical isolate; experiment: Standard MIC assay, AG001; format: cell-based, Escherichia coli
Description: as §7

[13] = tested on: AG004 E. coli clinical isolate; experiment: Standard MIC assay, AG004; format: cell-based, Escherichia coli
Description: as §7

[14] = tested on: AG006 E. coli BM13; experiment: Standard MIC assay, AG006; format: cell-based, Escherichia coli
Description: as §7

[15] = tested on: AG007 E. coli BM13 (AAC3); experiment: Standard MIC assay, AG007; format: cell-based, Escherichia coli; conditions: for Minimal inhibitory concentrations AG007: E. coli BM13 (AAC3)
Description: as §7

[16] = tested on: AG008 E. coli BM13 (ANT2″); experiment: Standard MIC assay, AG008; format: cell-based, Escherichia coli; conditions: E. coli BM13 (ANT2″)
Description: as §7

[17] = tested on: AG009 E. coli BM13 AAC(6′)-1B; experiment: Standard MIC assay, AG009; format: cell-based, Escherichia coli; conditions: for Minimal inhibitory concentrations AG009: E. coli BM13 AAC(6′)-1B
Description: as §7

[18] = tested on: AG002 E. coli clinical isolate; experiment: Standard MIC assay, AG002; format: cell-based, Escherichia coli
Description: as §7

[19] = tested on: AG003 E. coli clinical isolate; experiment: Standard MIC assay, AG003; format: cell-based, Escherichia coli
Description: as §7

Structure (SMILES)	minimal inhibitory concentrations ΔrrnB [1] [µg/mL]	minimal inhibitory concentrations ΔrrnB 1408G [2]	minimal inhibitory concentrations ΔrrnB 1491A [3]	minimal inhibitory concentrations ΔrrnB 1491C [4]	MIC [5] [µg/mL]	MIC [6] [µg/mL]	MIC [7] [µg/mL]	MIC [8] [µg/mL]	Minimal inhibitory concentrations AG013 [6] [µg/mL]	Minimal inhibitory concentrations AG014 [7] [µg/mL]	Minimal inhibitory concentrations AG016 [8] [µg/mL]	Minimal inhibitory concentrations AG015 [9] [µg/mL]	Minimal inhibitory concentrations AG017 [10] [µg/mL]	Minimal inhibitory concentrations AG019 [11] [µg/mL]	Minimal inhibitory concentrations AG001 [12] [µg/mL]	Minimal inhibitory concentrations AG004 [13] [µg/mL]	Minimal inhibitory concentrations AG006 [14] [µg/mL]	Minimal inhibitory concentrations AG007 [15] [µg/mL]	Minimal inhibitory concentrations AG008 [16] [µg/mL]	Minimal inhibitory concentrations AG009 [17] [µg/mL]	also measured
NC[C@@H]1O[C@H](O[C@H]2[C@@H](O)[C@H](O[C@@H]3[C@@H](O)[C@H](N)C[C@H](N)[C@H]3O[C@H]3O[C@H](CO)[C@@H](O)[C@H](O)[C@H]3N)O[C@@H]2CO)[C@H](N)[C@@H](O)[C@@H]1O [Paromomycin, paromomycin, reference compound]	1	64 µg/mL	64 µg/mL	≧512 μg/ml	8 (≈ 13 µM)	≥ 256	≥ 256	2 to 4 (≈ 3.25 to 6.5 µM)													MIC [9]: > 256 µg/mL; MIC [10]: 128 to 256 µg/mL (≈ 208 to 416 µM); MIC [11]: > 256 µg/mL
NC[C@@H]1O[C@H](O[C@H]2[C@@H](O)[C@H](O[C@@H]3[C@@H](O)[C@H](N)C[C@H](N)[C@H]3O[C@H]3O[C@@H]4CO[C@@H](c5ccc6ccccc6c5)O[C@H]4[C@H](O)[C@H]3N)O[C@@H]2CO)[C@H](N)[C@@H](O)[C@@H]1O [Compound 5.20, 4′,6′-O-2-Naphthylideneparomomycin]	2 to 4	>512 µg/mL	512 µg/mL	512 µg/mL					1 (≈ 1.33 µM)	1 (≈ 1.33 µM)	4 (≈ 5.31 µM)	8 to 16	8 to 16	8 to 16	8 (≈ 10.6 µM)	8 (≈ 10.6 µM)	8 to 16	16 to 32	16 (≈ 21.2 µM)	16 to 32	Minimal inhibitory concentrations AG011 [5]: 1 to 2 µg/mL
NC[C@H]1O[C@H](O[C@H]2[C@H](O)[C@@H](O[C@H]3O[C@H](CO)[C@@H](O)[C@H](N)[C@H]3O)[C@H](N)C[C@@H]2N)[C@H](N)C[C@@H]1O [Tobramycin, reference compound]					8 (≈ 17.1 µM)	≥ 256	256 (≈ 548 µM)	0.5 to 1 (≈ 1.07 to 2.14 µM)													MIC [9]: ≥ 256 µg/mL; MIC [10]: 16 to 32 µg/mL (≈ 34.2 to 68.4 µM); MIC [11]: > 256 µg/mL; MIC ([12]; Escherichia coli, read-out: Minimal inhibitory concentrations AG001): 4 µg/mL (≈ 8.56 µM); MIC ([18]; Escherichia coli, read-out: Minimal inhibitory concentrations AG002): 4 µg/mL (≈ 8.56 µM); MIC ([19]; Escherichia coli, read-out: Minimal inhibitory concentrations AG003): 32 µg/mL (≈ 68.4 µM); MIC ([13]; Escherichia coli, read-out: Minimal inhibitory concentrations AG004): 64 µg/mL (≈ 137 µM); MIC ([14]; Escherichia coli, read-out: Minimal inhibitory concentrations AG006): 2 µg/mL (≈ 4.28 µM); MIC ([15]; Escherichia coli, read-out: Minimal inhibitory concentrations AG007): 8 µg/mL (≈ 17.1 µM); MIC ([17]; Escherichia coli, read-out: Minimal inhibitory concentrations AG009): 128 to 256 µg/mL (≈ 274 to 548 µM)
NC[C@@H]1O[C@H](O[C@H]2[C@@H](O)[C@H](O[C@@H]3[C@@H](O)[C@H](N)C[C@H](N)[C@H]3O[C@H]3O[C@H](CO)[C@@H](OCCCc4ccccc4)[C@H](O)[C@H]3N)O[C@@H]2CO)[C@H](N)[C@@H](O)[C@@H]1O [Compound 19c, 4′-p-(3-phenylpropyl)paromomycin]	8 to 16	≧512 μg/ml	≧512 μg/ml	512 µg/mL					4 to 8	2 (≈ 2.73 µM)	4 (≈ 5.45 µM)	16 (≈ 21.8 µM)	8 to 16	32 (≈ 43.6 µM)	16 to 32	16 (≈ 21.8 µM)	8 to 16	8 to 16	8 to 16	32 (≈ 43.6 µM)	Minimal inhibitory concentrations AG002 [18]: 16 µg/mL (≈ 21.8 µM); Minimal inhibitory concentrations AG003 [19]: 8 to 16 µg/mL
NC[C@@H]1O[C@H](O[C@H]2[C@@H](O)[C@H](O[C@@H]3[C@@H](O)[C@H](N)C[C@H](N)[C@H]3O[C@H]3O[C@@H]4CO[C@@H](c5ccc(Cl)cc5)O[C@H]4[C@H](O)[C@H]3N)O[C@@H]2CO)[C@H](N)[C@@H](O)[C@@H]1O [Compound 5.8, 4′,6′-O-p-Chlorobenzylideneparomomycin]	4	>512 µg/mL	>512 µg/mL	>512 µg/mL					8 (≈ 10.8 µM)	8 to 16	8 (≈ 10.8 µM)	16 (≈ 21.7 µM)	16 to 32	64 (≈ 86.7 µM)	32 (≈ 43.3 µM)	16 to 32	64 (≈ 86.7 µM)	64 (≈ 86.7 µM)	64 (≈ 86.7 µM)	64 (≈ 86.7 µM)	Minimal inhibitory concentrations AG011 [5]: 4 to 8 µg/mL
